Data: PubChem BioAssay AID292 (DTP/NCI, 2004)
Several values for one entry are separate records, joined by “and”; a condition that tells them apart may be missing. Identical values can stand only once. Inconclusive results and toxic doses are left out.

System: B6C3F1 mice, ip Sarcoma M5076, median survival T/C
Test: NCI In Vivo Anticancer Drug Screen. Data for tumor model Sarcoma M5076 (intraperitoneal) in B6C3F1 mice
Settings: endpoint: median survival time, schedule: Q04DX004 (ip), higher = longer survival
Method in brief: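 Survival measured in treated (T) and vehicle control (C) mice with transplantable tumour; result given as T divided by C.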

[1] = dose: 25.0 mg/kg/injection, vehicle: saline
[2] = dose: 50.0 mg/kg/injection, vehicle: saline
[3] = dose: 50.0 mg/kg/injection, vehicle: saline with Tween-80
[4] = dose: 100.0 mg/kg/injection, vehicle: saline with Tween-80
[5] = dose: 200.0 mg/kg/injection, vehicle: saline with Tween-80
[6] = dose: 400.0 mg/kg/injection, vehicle: saline with Tween-80
[7] = dose: 800.0 mg/kg/injection, vehicle: saline with Tween-80
[8] = dose: 12.5 mg/kg/injection, vehicle: saline with Tween-80
[9] = dose: 25.0 mg/kg/injection, vehicle: saline with Tween-80
[10] = dose: 50.0 mg/kg/injection, vehicle: water
[11] = dose: 1.5 mg/kg/injection, vehicle: saline with Tween-80
[12] = dose: 3.0 mg/kg/injection, vehicle: saline with Tween-80
[13] = dose: 6.0 mg/kg/injection, vehicle: saline with Tween-80
[14] = dose: 25.0 mg/kg/injection, vehicle: water
[15] = dose: 100.0 mg/kg/injection, vehicle: water
[16] = dose: 200.0 mg/kg/injection, vehicle: water

For `CS(=O)(=O)CS(=O)(=O)OCCF`, the T/C (dose: 12.5 mg/kg/injection, vehicle: saline) was 152 % of control, the T/C (dose: 18.0 mg/kg/injection, vehicle: saline) was 176 % of control and the T/C [1] was 189 % of control and 240 % of control. For the same compound, the T/C (dose: 30.0 mg/kg/injection, vehicle: saline) was 244 % of control and the T/C [2] was 234 % of control and 262 % of control.
`Cc1cccc(-n2c(CC#N)n[nH]c2=S)c1` was tested, and the T/C [3] was 115 % of control, the T/C [4] was 109 % of control and the T/C [5] was 96 % of control. The T/C [6] was 106 % of control and the T/C [7] was 88 % of control.
With `c1ccc2c(c1)oc1cc3c(cc12)n1nnnc1c1cccn31` the T/C (dose: 3.12 mg/kg/injection, vehicle: saline with Tween-80) was 90 % of control, the T/C (dose: 6.25 mg/kg/injection, vehicle: saline with Tween-80) was 95 % of control and the T/C [8] was 90 % of control. For the same compound, the T/C [9] was 87 % of control.
In the case of `CCn1c2ccccc2c2c3ncc4cccn4c3ccc21`, the T/C (dose: 37.5 mg/kg/injection, vehicle: saline with Tween-80) is reported as 96 % of control, the T/C (dose: 75.0 mg/kg/injection, vehicle: saline with Tween-80) is reported as 96 % of control and the T/C (dose: 150.0 mg/kg/injection, vehicle: saline with Tween-80) is reported as 93 % of control. The T/C (dose: 300.0 mg/kg/injection, vehicle: saline with Tween-80) was 92 % of control and the T/C (dose: 600.0 mg/kg/injection, vehicle: saline with Tween-80) was 89 % of control.
For `CN1CCC2CC1c1ccn(C)c1C2=O` (stereo not drawn), the T/C (dose: 3.75 mg/kg/injection, vehicle: saline) was 106 % of control, the T/C (dose: 7.5 mg/kg/injection, vehicle: saline) was 102 % of control and the T/C (dose: 15.0 mg/kg/injection, vehicle: saline) was 107 % of control.
In the case of `COc1cc2oc3c(C)c(=O)cc4oc(-c5ccccc5)cc(c2c2c1CCC(c1ccccc1)O2)c43` (stereo not drawn), the T/C (dose: 1.75 mg/kg/injection, vehicle: Klucel (hydroxypropylcellulose) (HPC)) is reported as 109 % of control, the T/C (dose: 3.5 mg/kg/injection, vehicle: Klucel (hydroxypropylcellulose) (HPC)) is reported as 102 % of control and the T/C (dose: 7.0 mg/kg/injection, vehicle: Klucel (hydroxypropylcellulose) (HPC)) is reported as 102 % of control. For the same compound, the T/C [8] was 98 % of control, the T/C (dose: 14.0 mg/kg/injection, vehicle: Klucel (hydroxypropylcellulose) (HPC)) was 109 % of control and the T/C [9] was 98 % of control. The T/C (dose: 28.0 mg/kg/injection, vehicle: Klucel (hydroxypropylcellulose) (HPC)) was 97 % of control, the T/C [3] was 99 % of control and 100 % of control and the T/C [4] was 94 % of control and 96 % of control. The T/C [5] was 96 % of control and 103 % of control, the T/C [6] was 87 % of control and the T/C [7] was 110 % of control.
With `Nc1nc(N)c2cc(C=O)ccc2n1` the T/C (dose: 3.13 mg/kg/injection, vehicle: water) was 91 % of control and 98 % of control, the T/C (dose: 6.25 mg/kg/injection, vehicle: water) was 94 % of control and the T/C (dose: 12.5 mg/kg/injection, vehicle: water) was 101 % of control and 103 % of control. For the same compound, the T/C [10] was 88 % of control.
In the case of `Cc1nc(N)nc(N)c1N1CCN(c2ccc(C(=O)NC(C(=O)O)C(=O)O)cc2)CC1`, the T/C (dose: 3.75 mg/kg/injection, vehicle: Klucel + Tween-80) is reported as 104 % of control, the T/C (dose: 7.5 mg/kg/injection, vehicle: Klucel + Tween-80) is reported as 106 % of control and the T/C (dose: 15.0 mg/kg/injection, vehicle: Klucel + Tween-80) is reported as 103 % of control. For the same compound, the T/C (dose: 30.0 mg/kg/injection, vehicle: Klucel + Tween-80) was 113 % of control and the T/C (dose: 60.0 mg/kg/injection, vehicle: Klucel + Tween-80) was 121 % of control.
With `CC(C)c1cc(C(=O)O)c(O)c(C(C)C)c1.CC(C)c1cc(C(=O)O)c(O)c(C(C)C)c1.[Cu]` the T/C [11] was 95 % of control and 104 % of control, the T/C [12] was 102 % of control and 104 % of control and the T/C [13] was 96 % of control and 102 % of control. For the same compound, the T/C (dose: 12.0 mg/kg/injection, vehicle: saline with Tween-80) was 88 % of control and 102 % of control, the T/C [8] was 93 % of control and the T/C (dose: 24.0 mg/kg/injection, vehicle: saline with Tween-80) was 90 % of control.
In the case of `O=c1c2ccccc2nc(-c2ccccc2)n1-c1nccs1`, the T/C [9] is reported as 94 % of control, the T/C [5] is reported as 89 % of control and the T/C [6] is reported as 90 % of control.
In the case of `C/C(=N\NC(=O)c1ccccc1O)c1cccc(/C(C)=N/NC(=O)c2ccccc2O)n1`, the T/C [1] is reported as 88 % of control, the T/C (dose: 25.0 mg/kg/injection, vehicle: suspension in saline) is reported as 108 % of control and the T/C [2] is reported as 88 % of control. The T/C (dose: 100.0 mg/kg/injection, vehicle: suspension in saline) was 116 % of control.
In the case of `Cn1c(-c2ccc(/C=N\N3CCN(/N=C/c4ccc(-c5c[n+]6ccsc6n5C)cc4)CC3)cc2)c[n+]2ccsc12`, the T/C [11] is reported as 109 % of control, the T/C [12] is reported as 104 % of control and the T/C [13] is reported as 101 % of control.
With `O=C1N=NC2=C1c1c3ccccc3c(O)n1CC2` the T/C [14] was 97 % of control, the T/C [10] was 95 % of control and the T/C [15] was 93 % of control. For the same compound, the T/C [16] was 100 % of control.
With `O=S1(=O)C(c2ccccc2)=C(O)c2cc3ccccc3nc21` the T/C (dose: 31.25 mg/kg/injection, vehicle: saline with Tween-80) was 97 % of control, the T/C (dose: 62.5 mg/kg/injection, vehicle: saline with Tween-80) was 108 % of control and the T/C (dose: 125.0 mg/kg/injection, vehicle: saline with Tween-80) was 93 % of control. The T/C (dose: 250.0 mg/kg/injection, vehicle: saline with Tween-80) was 102 % of control.
For `C/C=C/C=C\C=C/C(O)CC(OP(=O)(O)O)C(C)(O)/C=C/C1CC=CC(=O)O1` (stereo not drawn), the T/C (dose: 0.75 mg/kg/injection, vehicle: Klucel (hydroxypropylcellulose) (HPC)) was 104 % of control, the T/C (dose: 1.5 mg/kg/injection, vehicle: Klucel (hydroxypropylcellulose) (HPC)) was 112 % of control and the T/C (dose: 1.5 mg/kg/injection, vehicle: water) was 106 % of control. For the same compound, the T/C (dose: 3.0 mg/kg/injection, vehicle: Klucel (hydroxypropylcellulose) (HPC)) was 111 % of control, the T/C (dose: 3.0 mg/kg/injection, vehicle: water) was 108 % of control and 111 % of control and the T/C (dose: 6.0 mg/kg/injection, vehicle: Klucel (hydroxypropylcellulose) (HPC)) was 112 % of control. For the same compound, the T/C (dose: 6.0 mg/kg/injection, vehicle: water) was 108 % of control and 113 % of control, the T/C (dose: 12.0 mg/kg/injection, vehicle: water) was 108 % of control and the T/C (dose: 24.0 mg/kg/injection, vehicle: water) was 112 % of control.
With `O=c1c2cc3ccccc3cc2c(=O)n2n1CC=CC2` the T/C (dose: 20.31 mg/kg/injection, vehicle: Klucel (hydroxypropylcellulose) (HPC)) was 100 % of control, the T/C (dose: 40.63 mg/kg/injection, vehicle: Klucel (hydroxypropylcellulose) (HPC)) was 99 % of control and the T/C (dose: 81.25 mg/kg/injection, vehicle: Klucel (hydroxypropylcellulose) (HPC)) was 99 % of control. The T/C (dose: 162.5 mg/kg/injection, vehicle: Klucel (hydroxypropylcellulose) (HPC)) was 99 % of control and the T/C (dose: 325.0 mg/kg/injection, vehicle: Klucel (hydroxypropylcellulose) (HPC)) was 99 % of control.
`O=C1N(CCN2CCC3(CC2)OCCO3)CCN1c1cc(Cl)cc(Cl)c1` was tested, and the T/C [14] was 104 % of control and the T/C [10] was 102 % of control.
With `O=NNc1ncccn1` the T/C [14] was 101 % of control, the T/C [10] was 100 % of control and the T/C [15] was 97 % of control. For the same compound, the T/C [16] was 100 % of control and the T/C (dose: 400.0 mg/kg/injection, vehicle: water) was 110 % of control.
